Laboratory results as given in patent publication US10092028B2, “Compositions comprising cinnamaldehyde and zinc and methods of using such compositions” (NESTEC S.A., priority 2014, dated 2018).

Key:
[1] = comparative taste testing in human subjects; assay type: in vivo; details: 4.8 ppm capsaicin or 350 ppm cinnamaldehyde, FIG. 9
Description: Human subjects were administered a composition comprising 4.8 ppm capsaicin or 350 ppm cinnamaldehyde. […] 87.9% of the participants judged capsaicin intense to very intense, compared to only 20.5% for cinnamaldehyde. To achieve a similar effect on fat oxidation of capsaicin and cinnamaldehyde, the dose of capsaicin is about 1.5 times less than the maximum that can be used as a flavor (7 ppm according to Fenaroli's Handbook; Burdock, 2010), and the dose of cinnamaldehyde is about 17.5 times less than the maximum that can be used as a flavor (6191.0 ppm according to Fenaroli's Handbook; Burdock, 2010).

[2] = in vivo; cited from earlier work
[3] = nose temperature after ingestion in human subjects; assay type: in vivo; details: fifteen minutes following ingestion, FIG. 7
Description: (§1) The nose temperature of the subjects was analyzed over the fifteen minutes following ingestion of the various compounds. […] The increased sympathetic activity identified by measuring the facial temperature (increased blood flow on the chin) might explain the increased energy expenditure measured by indirect calorimetry.

[4] = chin temperature after ingestion in human subjects (sympathetic activity); assay type: in vivo
Description: as §1, with “chin” for “nose”, “measured” for “analyzed”, “eighty” for “fifteen”

[5] = biological target: T1, hTRPA1 expressed in CHO cells (Homo sapiens, UniProt O75762); test: in vitro activity of hTRPA1 expressed in CHO cells, intracellular calcium with a fluorescent dye; assay type: cell-based; details: cinnamaldehyde at 50 mM (C+), according to a dose-response curve
T1 construct: expressed in transfected cells; host or cells: CHO cells

[6] = energy expenditure after ingestion in human subjects; assay type: in vivo
Description: Human subjects were administered placebo, a cooling flavor, capsaicin, or cinnamaldehyde. The energy expenditure was measured over the eighty minutes following ingestion. […] The increased sympathetic activity identified by measuring the facial temperature (increased blood flow on the chin) might explain the increased energy expenditure measured by indirect calorimetry.

[7] = insulin sensitivity in mice with chronic ingestion, high fat diet; assay type: in vivo; details: mice chronically fed high fat diet containing 0.2 wt % cinnamaldehyde, FIG. 11
Excerpt: The composition can thereby reduce glycemia.

[8] = postprandial fat oxidation after ingestion in human subjects; assay type: in vivo
Description: The postprandial fat oxidation was measured over the 90 minutes following ingestion of the various compounds.

TRPV1 = TRPV1 (Homo sapiens, UniProt Q8NER1); details: cited from earlier work
TRPA1 = TRPA1 (Homo sapiens, UniProt O75762); details: read-out: EC50 for activation of TRPA1; cited from earlier work
[9] = at a flavoring level judged significantly less intense than capsaicin

Chain of TRPV1 (Q8NER1 whole entry, species assumed): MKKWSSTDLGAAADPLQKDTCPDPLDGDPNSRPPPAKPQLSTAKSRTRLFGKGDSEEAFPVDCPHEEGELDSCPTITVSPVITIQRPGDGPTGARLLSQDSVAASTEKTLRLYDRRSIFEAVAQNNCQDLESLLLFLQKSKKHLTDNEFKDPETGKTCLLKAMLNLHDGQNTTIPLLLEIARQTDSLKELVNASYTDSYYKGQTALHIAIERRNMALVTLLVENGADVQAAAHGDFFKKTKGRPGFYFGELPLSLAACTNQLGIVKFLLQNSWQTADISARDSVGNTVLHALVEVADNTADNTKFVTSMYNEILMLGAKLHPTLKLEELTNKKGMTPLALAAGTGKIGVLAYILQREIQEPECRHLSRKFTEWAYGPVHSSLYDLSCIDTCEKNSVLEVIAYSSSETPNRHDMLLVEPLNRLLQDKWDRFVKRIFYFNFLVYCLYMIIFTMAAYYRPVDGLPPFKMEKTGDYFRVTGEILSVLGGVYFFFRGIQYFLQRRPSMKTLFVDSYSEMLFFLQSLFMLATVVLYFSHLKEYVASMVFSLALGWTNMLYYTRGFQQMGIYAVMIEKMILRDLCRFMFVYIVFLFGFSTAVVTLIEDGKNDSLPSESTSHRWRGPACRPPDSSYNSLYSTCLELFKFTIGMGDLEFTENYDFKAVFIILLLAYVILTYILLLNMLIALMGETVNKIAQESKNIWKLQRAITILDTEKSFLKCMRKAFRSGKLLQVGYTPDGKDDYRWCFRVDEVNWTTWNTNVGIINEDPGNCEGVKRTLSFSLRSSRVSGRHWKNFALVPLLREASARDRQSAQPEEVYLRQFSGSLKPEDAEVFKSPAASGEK
T1 sequence (O75762 whole entry): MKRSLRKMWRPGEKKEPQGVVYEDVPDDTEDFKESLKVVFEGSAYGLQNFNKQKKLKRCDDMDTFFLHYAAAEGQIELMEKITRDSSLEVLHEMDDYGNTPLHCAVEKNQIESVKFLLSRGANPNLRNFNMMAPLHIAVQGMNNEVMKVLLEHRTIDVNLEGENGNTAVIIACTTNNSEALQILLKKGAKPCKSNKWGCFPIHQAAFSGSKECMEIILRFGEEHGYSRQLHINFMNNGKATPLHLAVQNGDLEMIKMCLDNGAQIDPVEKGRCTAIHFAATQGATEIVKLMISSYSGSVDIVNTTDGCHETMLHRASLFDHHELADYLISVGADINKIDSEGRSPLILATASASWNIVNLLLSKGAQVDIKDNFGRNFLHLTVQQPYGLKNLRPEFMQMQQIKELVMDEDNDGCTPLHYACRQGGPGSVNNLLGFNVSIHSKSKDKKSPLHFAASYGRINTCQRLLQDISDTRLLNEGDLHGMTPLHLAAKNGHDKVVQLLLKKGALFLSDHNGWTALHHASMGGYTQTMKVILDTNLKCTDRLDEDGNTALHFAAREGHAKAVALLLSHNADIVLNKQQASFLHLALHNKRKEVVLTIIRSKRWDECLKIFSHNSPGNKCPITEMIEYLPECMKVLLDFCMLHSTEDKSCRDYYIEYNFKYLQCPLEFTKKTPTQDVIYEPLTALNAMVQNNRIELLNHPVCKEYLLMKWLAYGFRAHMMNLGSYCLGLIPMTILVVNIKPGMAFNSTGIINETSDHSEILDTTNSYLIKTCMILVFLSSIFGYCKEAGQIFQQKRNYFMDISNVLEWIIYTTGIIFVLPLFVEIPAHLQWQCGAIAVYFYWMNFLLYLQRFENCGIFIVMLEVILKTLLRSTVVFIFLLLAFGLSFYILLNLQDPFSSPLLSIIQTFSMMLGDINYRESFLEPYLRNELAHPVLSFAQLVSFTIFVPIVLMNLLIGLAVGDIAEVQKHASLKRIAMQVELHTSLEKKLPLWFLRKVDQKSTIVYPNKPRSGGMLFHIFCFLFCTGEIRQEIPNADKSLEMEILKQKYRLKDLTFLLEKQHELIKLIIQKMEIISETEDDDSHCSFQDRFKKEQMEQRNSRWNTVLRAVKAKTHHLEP
Chain of TRPA1 (O75762 whole entry): as above

SMILES | participants who judged the taste intense to very intense [1] | efficient dose for increasing energy expenditure and fat oxidation [2] | nose temperature [3] | impact on sympathetic nervous system activity compared to capsaicin [4, 9] | chin temperature relative to baseline ([4]; eighty minutes following ingestion, FIG. 8) | activity of hTRPA1, positive control efficacy [5] | impact on energy expenditure compared to capsaicin [6, 9] | energy expenditure compared to placebo ([6]; eighty minutes following ingestion, time course and AUC, FIGS. 3 and 4) | insulin sensitivity relative to same high fat diet without cinnamaldehyde [7] | postprandial fat oxidation compared to placebo ([8]; 90 minutes following ingestion, time course and AUC, FIGS. 5 and 6) | effect on fat oxidation compared to capsaicin [8, 9] | activation of TRPV1 (TRPV1) | EC50 (TRPA1)
COc1cc(CNC(=O)CCCC/C=C/C(C)C)ccc1O [capsaicin] | 87.9% | ≥ 20 mg | increase nose temperatures | – | – | – | – | – | – | – | – | – | –
O=CC=Cc1ccccc1 [cinnamaldehyde] | – | – | increase nose temperatures | significantly higher impact | increases chin temperature for a prolonged time | maximum efficacy | significantly higher impact | increased | improved insulin sensitivity | maintained at higher levels | equivalent effect | but not TRPV1 or TRPM8 | ~10 µM
